Assays:
[1] = system: radish, wild; assay: Test D preemergence; format: in vivo, Raphanus raphanistrum; conditions: Preemergence, scale 0 to 100
How it was run: (§1)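 Preemergence: seeds sown in silt loam and sprayed with compounds in a non-phytotoxic solvent with surfactant; postemergence: plants at 2 to 18 cm (1- to 4-leaf stage) in peat-based medium treated likewise. After 14 to 21 days in controlled growth conditions, injury rated visually versus controls on 0 (no effect) to 100 (complete control) scale.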

[2] = system: blackgrass; assay: Test D preemergence; format: in vivo, Alopecurus myosuroides; conditions: Preemergence, scale 0 to 100
How it was run: as §1

[3] = system: galium; assay: Test D postemergence; format: in vivo, Galium aparine; conditions: scale 0 to 100
How it was run: as §1

[4] = system: foxtail, green; assay: Test D postemergence; format: in vivo, Setaria viridis; conditions: scale 0 to 100
How it was run: as §1

[5] = system: canarygrass; assay: Test D preemergence; format: in vivo, Phalaris minor; conditions: Preemergence, scale 0 to 100
How it was run: as §1

[6] = system: mustard, wild; assay: Test D postemergence; format: in vivo, Sinapis arvensis; conditions: scale 0 to 100
How it was run: as §1

[7] = system: oat, wild; assay: Test D preemergence; format: in vivo, Avena fatua; conditions: Preemergence, scale 0 to 100
How it was run: as §1

[8] = system: radish, wild; assay: Test D postemergence; format: in vivo, Raphanus raphanistrum; conditions: scale 0 to 100
How it was run: as §1

[9] = system: ryegrass, Italian; assay: Test D postemergence; format: in vivo, Lolium multiflorum; conditions: scale 0 to 100
How it was run: as §1

[10] = system: pigweed; assay: Test D preemergence; format: in vivo, Amaranthus retroflexus; conditions: Preemergence, scale 0 to 100
How it was run: as §1

[11] = system: chickweed; assay: Test D postemergence; format: in vivo, Stellaria media; conditions: scale 0 to 100
How it was run: as §1

[12] = system: barley, winter; assay: Test D preemergence; format: in vivo, Hordeum vulgare; conditions: Preemergence, scale 0 to 100
How it was run: as §1

[13] = system: barley, spring; assay: Test D preemergence; format: in vivo, Hordeum vulgare; conditions: Preemergence, scale 0 to 100
How it was run: as §1

[14] = system: deadnettle; assay: Test D preemergence; format: in vivo, Lamium amplexicaule; conditions: Preemergence, scale 0 to 100
How it was run: as §1

[15] = system: field violet; assay: Test D postemergence; format: in vivo, Viola arvensis; conditions: scale 0 to 100
How it was run: as §1

[16] = system: mustard, wild; assay: Test D preemergence; format: in vivo, Sinapis arvensis; conditions: Preemergence, scale 0 to 100
How it was run: as §1

[17] = system: wheat, spring; assay: Test D postemergence; format: in vivo, Triticum aestivum; conditions: scale 0 to 100
How it was run: as §1

[18] = system: wheat, winter; assay: Test D postemergence; format: in vivo, Triticum aestivum; conditions: scale 0 to 100
How it was run: as §1

[19] = system: foxtail, green; assay: Test D preemergence; format: in vivo, Setaria viridis; conditions: Preemergence, scale 0 to 100
How it was run: as §1

[20] = system: windgrass; assay: Test D postemergence; format: in vivo, Apera spica-venti; conditions: scale 0 to 100
How it was run: as §1

`CCc1cc(C(=O)NCC(F)(F)F)nn1Cc1ccnc(SC(F)(F)F)c1` [Compound 214] was tested, and the “Plant response rating, Radish, Wild” value ([1]; 62 g ai/ha) was 100, the “Plant response rating, Radish, Wild” value ([1]; 125 g ai/ha) was 100 and the “Plant response rating, Radish, Wild” value ([1]; 250 g ai/ha) was 100. The “Plant response rating, Blackgrass” value ([2]; 31 g ai/ha) was 35, the “Plant response rating, Blackgrass” value ([2]; 62 g ai/ha) was 75 and the “Plant response rating, Blackgrass” value ([2]; 125 g ai/ha) was 90. The “Plant response rating, Blackgrass” value ([2]; 250 g ai/ha) was 100, the “Galium plant response rating” value ([3]; Postemergence, 31 g ai/ha) was 80 and the “Galium plant response rating” value ([3]; Postemergence, 125 g ai/ha) was 80. For the same molecule, the “Galium plant response rating” value ([3]; Postemergence, 250 g ai/ha) was 100, the “Galium plant response rating” value ([3]; postemergence, 62 g ai/ha) was 80 and the “Foxtail, Green plant response rating” value ([4]; Postemergence, 31 g ai/ha) was 15. For the same molecule, the “Foxtail, Green plant response rating” value ([4]; Postemergence, 125 g ai/ha) was 35, the “Foxtail, Green plant response rating” value ([4]; Postemergence, 250 g ai/ha) was 60 and the “Foxtail, Green plant response rating” value ([4]; postemergence, 62 g ai/ha) was 15. The “Plant response rating, Canarygrass” value ([5]; 31 g ai/ha) was 40, the “Plant response rating, Canarygrass” value ([5]; 62 g ai/ha) was 65 and the “Plant response rating, Canarygrass” value ([5]; 125 g ai/ha) was 100. The “Plant response rating, Canarygrass” value ([5]; 250 g ai/ha) was 100, the “Mustard, Wild plant response rating” value ([6]; Postemergence, 31 g ai/ha) was 70 and the “Mustard, Wild plant response rating” value ([6]; Postemergence, 125 g ai/ha) was 100. The “Mustard, Wild plant response rating” value ([6]; Postemergence, 250 g ai/ha) was 100, the “Mustard, Wild plant response rating” value ([6]; postemergence, 62 g ai/ha) was 70 and the “Plant response rating, Oat, Wild” value ([7]; 62 g ai/ha) was 20. For the same molecule, the “Plant response rating, Oat, Wild” value ([7]; 125 g ai/ha) was 70, the “Plant response rating, Oat, Wild” value ([7]; 250 g ai/ha) was 95 and the “Radish, Wild plant response rating” value ([8]; Postemergence, 31 g ai/ha) was 65. For the same molecule, the “Radish, Wild plant response rating” value ([8]; Postemergence, 125 g ai/ha) was 70, the “Radish, Wild plant response rating” value ([8]; Postemergence, 250 g ai/ha) was 100 and the “Radish, Wild plant response rating” value ([8]; postemergence, 62 g ai/ha) was 65. For the same molecule, the “Ryegrass, Italian plant response rating” value ([9]; Postemergence, 31 g ai/ha) was 10, the “Ryegrass, Italian plant response rating” value ([9]; Postemergence, 125 g ai/ha) was 20 and the “Ryegrass, Italian plant response rating” value ([9]; Postemergence, 250 g ai/ha) was 45. The “Ryegrass, Italian plant response rating” value ([9]; postemergence, 62 g ai/ha) was 10, the “Plant response rating, Pigweed” value ([10]; 62 g ai/ha) was 100 and the “Plant response rating, Pigweed” value ([10]; 125 g ai/ha) was 100. The “Plant response rating, Pigweed” value ([10]; 250 g ai/ha) was 100, the “Chickweed plant response rating” value ([11]; Postemergence, 31 g ai/ha) was 65 and the “Chickweed plant response rating” value ([11]; Postemergence, 125 g ai/ha) was 70. For the same molecule, the “Chickweed plant response rating” value ([11]; Postemergence, 250 g ai/ha) was 70, the “Chickweed plant response rating” value ([11]; postemergence, 62 g ai/ha) was 65 and the “Plant response rating, Barley, Winter” value ([12]; 31 g ai/ha) was 15. The “Plant response rating, Barley, Winter” value ([12]; 62 g ai/ha) was 35, the “Plant response rating, Barley, Winter” value ([12]; 125 g ai/ha) was 55 and the “Plant response rating, Barley, Winter” value ([12]; 250 g ai/ha) was 65. For the same molecule, the “Plant response rating, Barley, Spring” value ([13]; 31 g ai/ha) was 10, the “Plant response rating, Barley, Spring” value ([13]; 62 g ai/ha) was 40 and the “Plant response rating, Barley, Spring” value ([13]; 125 g ai/ha) was 65. For the same molecule, the “Plant response rating, Barley, Spring” value ([13]; 250 g ai/ha) was 80, the “Plant response rating, Deadnettle” value ([14]; 31 g ai/ha) was 90 and the “Plant response rating, Deadnettle” value ([14]; 62 g ai/ha) was 100. For the same molecule, the “Plant response rating, Deadnettle” value ([14]; 125 g ai/ha) was 100, the “Plant response rating, Deadnettle” value ([14]; 250 g ai/ha) was 100 and the “Field Violet plant response rating” value ([15]; Postemergence, 31 g ai/ha) was 100. The “Field Violet plant response rating” value ([15]; Postemergence, 125 g ai/ha) was 100, the “Field Violet plant response rating” value ([15]; Postemergence, 250 g ai/ha) was 100 and the “Field Violet plant response rating” value ([15]; postemergence, 62 g ai/ha) was 100. For the same molecule, the “Plant response rating, Mustard, Wild” value ([16]; 62 g ai/ha) was 100, the “Plant response rating, Mustard, Wild” value ([16]; 125 g ai/ha) was 100 and the “Plant response rating, Mustard, Wild” value ([16]; 250 g ai/ha) was 100. For the same molecule, the “Wheat, Spring plant response rating” value ([17]; Postemergence, 31 g ai/ha) was 15, the “Wheat, Spring plant response rating” value ([17]; Postemergence, 125 g ai/ha) was 15 and the “Wheat, Spring plant response rating” value ([17]; Postemergence, 250 g ai/ha) was 20. The “Wheat, Spring plant response rating” value ([17]; postemergence, 62 g ai/ha) was 15, the “Wheat, Winter plant response rating” value ([18]; Postemergence, 31 g ai/ha) was 15 and the “Wheat, Winter plant response rating” value ([18]; Postemergence, 125 g ai/ha) was 20. For the same molecule, the “Wheat, Winter plant response rating” value ([18]; Postemergence, 250 g ai/ha) was 40, the “Wheat, Winter plant response rating” value ([18]; postemergence, 62 g ai/ha) was 15 and the “Plant response rating, Foxtail, Green” value ([19]; 62 g ai/ha) was 100. The “Plant response rating, Foxtail, Green” value ([19]; 125 g ai/ha) was 100, the “Plant response rating, Foxtail, Green” value ([19]; 250 g ai/ha) was 100 and the “Windgrass plant response rating” value ([20]; Postemergence, 31 g ai/ha) was 20. For the same molecule, the “Windgrass plant response rating” value ([20]; Postemergence, 125 g ai/ha) was 30, the “Windgrass plant response rating” value ([20]; Postemergence, 250 g ai/ha) was 40 and the “Windgrass plant response rating” value ([20]; postemergence, 62 g ai/ha) was 20.

From US20150105252A1, “SUBSTITUTED PYRAZOLES AS HERBICIDES” (E I DU PONT DE NEMOURS AND COMPANY, priority 2013, published 2015)
